Assay: Human HepG2 cell viability assay in 384 well format
Format: toxicity, cell-based
Set-up: dose 125 nL, time 70.5 hour; cytotoxicity at 70.5 h: concentration not given beside the values
Conditions: HepG2 cells, read-out: Inhibition

First: CS(=O)(=O)N[C@H]1CCO[C@]2(CCN(C(=O)c3ccccn3)C2)C1
Second: O=C1COC2(CCN(c3ccccn3)CC2)CN1
The cytotoxicity at 70.5 h of the first is higher: -3.91% for the first, -19.6% for the second.

Compared with `Cc1nccn1CC(=O)N1CC(Cc2nccc3ccn(C)c23)C1`, `CN(C)CC1CN(C(=O)NCc2ccccc2)Cc2nccn2C1` (stereo not given) is higher in cytotoxicity at 70.5 h: -9.67% for the first, -5.97% for the second.

Compared with `Cc1cc(C)n(C2=NC(NCCCO)c3c(sc4c3CCCC4)N2)n1` (stereo not given), `COCc1nc(C(=O)N2CCCC(n3nc(C)cc3C)C2)cs1` (stereo not given) is higher in cytotoxicity at 70.5 h: -11.9% for the first, -8.71% for the second.

Compared with `CC(C)c1nnc2sc(CC3CCS(=O)(=O)CC3)nn12`, `CCn1cnnc1C1CCN(C(=O)c2cc3c(s2)CCC3)CC1` is lower in cytotoxicity at 70.5 h: -8.54% for the first, -12.3% for the second.

Compared with `CCOc1cc(NC(=O)N2CCC(c3nnc[nH]3)CC2)ccc1C`, `COc1cc(NC(=O)NC2CCCC2)ccc1N1CCOC1=O` is lower in cytotoxicity at 70.5 h: -0.547% for the first, -8.76% for the second.

First: Cn1c(NCC(O)c2ccc(Cl)cc2)c(C#N)c(=O)n(C)c1=O (stereo not given)
Second: COc1ccc(Cn2c(=O)n(C)c(=O)c3sccc32)cc1
The cytotoxicity at 70.5 h of the first is lower: -4.06% for the first, 3.39% for the second.

Going from `COCCNC(=O)c1ccc2c(=O)n3c(nc2c1)CCN(C)CC3` to `Cc1nc2ccc(C(=O)N3C[C@@H](O)[C@H](N4CCN(C)CC4)C3)cc2[nH]1`, the cytotoxicity at 70.5 h falls from 7.41% to -4.75%.

Going from `COc1cc(CNC(C)Cn2ccnc2)cc2c1OCO2` (stereo not given) to `COc1ccc(NC(C)=O)cc1OCc1cccnc1`, the cytotoxicity at 70.5 h rises from -10.9% to 29.5%.

Compared with `Cn1cc(CN2CCCC23CCN(C(=O)c2ccsc2)CC3)cn1`, `Cn1cc(CCC(=O)N2CCCN(c3ncccc3C#N)CC2)cn1` is higher in cytotoxicity at 70.5 h: -5.87% for the first, 35.5% for the second.

Compared with `CC(C)Nc1nc2c(c(NC3CC3)n1)CN(C(=O)c1ccnnc1)CC2`, `CCOc1ncnc2c1CCN(C(=O)c1ccncc1F)CC2` is lower in cytotoxicity at 70.5 h: 32.6% for the first, -3.16% for the second.

First: O=C(NS(=O)(=O)c1c(Cl)cccc1Cl)c1cccc2c1OCCO2
Second: COc1ccc(CNC(=O)CNc2cc3c(cc2Cl)OCCCO3)cc1
The cytotoxicity at 70.5 h of the first is lower: -103% for the first, -5.19% for the second.

Going from `Cc1cc2c(cc1C(=O)N1CC[C@H](CO)[C@@H](O)C1)OCCO2` to `CCNc1cc2c(nn1)CCN(C(=O)c1ccc3c(c1)OCO3)C2`, the cytotoxicity at 70.5 h rises from -7.62% to -4.42%.

First: CN(C(=O)Cc1c[nH]c2ccccc12)C1CCN(c2ccccn2)CC1
Second: Cc1cccc(CN2C(=O)C[C@H]3[C@@H]2CCN3Cc2ccccn2)n1
The cytotoxicity at 70.5 h of the first is lower: 9.62% for the first, 23.7% for the second.

Going from `Cc1ccc(CS(=O)(=O)N2Cc3c(CN(C)C)nn(C)c3C2)cc1` to `Cc1ccc(S(=O)(=O)N2C[C@H]3C[C@H](NC(=O)c4cnn(C)c4)[C@H]3C2)cc1`, the cytotoxicity at 70.5 h rises from -4.61% to 33.7%.

Compared with `O=C1CCN(C(=O)c2csc(-c3ccc(C(F)(F)F)cc3)n2)CCN1`, `O=C1CN(C(=O)C2CN(c3ccc(F)cc3)CCO2)CCN1` (stereo not given) is higher in cytotoxicity at 70.5 h: -8.28% for the first, -7.29% for the second.

Compared with `CCNc1cc2c(nn1)CCN(C(=O)CC1CCCC1)C2`, `CC(C)C(=O)NC1CCCc2nc(N3CCOCC3)ncc21` (stereo not given) is higher in cytotoxicity at 70.5 h: -5.46% for the first, -0.959% for the second.

Going from `O=C(CCc1nc(Cl)n[nH]1)NC1CCCN(C2Cc3ccccc3C2)C1` (stereo not given) to `O=C(NCC1CCCO1)c1nc2c(s1)CCCN2Cc1ccccc1` (stereo not given), the cytotoxicity at 70.5 h rises from -9.23% to -4.02%.

Compared with `CN(C)C(=O)N1CCC2(CC1)NC(=O)c1ccccc12`, `CN(C)C1CC2(CCN(C(=O)c3csnn3)CC2)c2ccccc21` (stereo not given) is higher in cytotoxicity at 70.5 h: -2.99% for the first, -0.291% for the second.

Going from `O=S(=O)(NC1=NCN(CCc2ccccc2)CN1)c1ccc(F)cc1` to `O=c1cc(Cn2ccnc2)nc2n1CCCN(Cc1ccc(F)cc1)C2`, the cytotoxicity at 70.5 h rises from -27.6% to -14.3%.

First: CS(=O)(=O)CCCNC(=O)C1(c2cccc(Cl)c2)CC1
Second: CS(=O)(=O)NC(=O)c1nnn(-c2cccc(F)c2)c1C1CC1
The cytotoxicity at 70.5 h of the first is lower: -12.8% for the first, -7.64% for the second.

Compared with `CCn1nc(C)c(C(C)NC(=O)c2cccc(NCC(=O)O)c2)c1C` (stereo not given), `CCn1nc(C)c2nnn(CC(=O)Nc3c(C)cccc3C)c(=O)c21` is higher in cytotoxicity at 70.5 h: -9.45% for the first, 27.9% for the second.

Compared with `Cc1nc(C2CCCN(C(=O)c3ccc(N4CCCC4)nn3)C2)no1` (stereo not given), `O=C(c1ccccc1F)N1CCCn2c(CN3CCCCC3)nnc2C1` is lower in cytotoxicity at 70.5 h: 0.493% for the first, -6.86% for the second.

Going from `CNc1ncc(C(=O)N2CCOC(C(=O)Nc3ccccc3)C2)cn1` (stereo not given) to `Cc1cnn(C2CCCN(C(=O)c3cn(-c4ccccc4)nn3)C2)c1` (stereo not given), the cytotoxicity at 70.5 h falls from -2.73% to -6.41%.

Compared with `CC(=O)NC(CC(=O)Nc1ccc(C)cn1)c1ccccc1` (stereo not given), `COc1cccc(NC(=O)Cn2cc(-c3ccccc3)ncc2=O)c1` is lower in cytotoxicity at 70.5 h: -6.79% for the first, -8.81% for the second.

First: CCS(=O)(=O)N1CCCn2nnc(Cn3cccc3)c2C1
Second: CS(=O)(=O)NCCC1CCCN(Cc2ccccc2F)C1 (stereo not given)
The cytotoxicity at 70.5 h of the first is higher: -5.99% for the first, -7.9% for the second.

Going from `COCC(=O)NC(c1ccc(Cl)cc1)c1noc(C)n1` (stereo not given) to `Cc1ccc(-n2nnc(C(=O)NC(C)C)c2C2CC2)cc1`, the cytotoxicity at 70.5 h falls from -2.49% to -4.09%.

Compared with `COCCN1C[C@H]2[C@@H](C1)N(C(=O)c1cccc(OC)c1)CC[C@H]2OC`, `COCCC(=O)NC1CCN(CC2(c3cccc(F)c3)CCCC2)CC1` is higher in cytotoxicity at 70.5 h: -2.65% for the first, 0.0702% for the second.

Compared with `Cc1n[nH]c(=O)c2c(NC(=O)CN3CCCC(C(F)(F)F)C3)oc(C)c12` (stereo not given), `Cc1cc(NC(=O)CN2CCc3nn(C)c(=O)cc3C2)no1` is lower in cytotoxicity at 70.5 h: 15.7% for the first, -9.67% for the second.

First: COCCN1CCc2cc(C(=O)NC(C)C)c(NCC(C)C)nc2CC1
Second: COCCn1nc(C(=O)N(C)Cc2cnn(C)c2)ccc1=O
The cytotoxicity at 70.5 h of the first is lower: -16.4% for the first, 42.3% for the second.

Going from `Cc1nnc2n1CCN(Cc1csc(CC(=O)N(C)C)n1)C2` to `Cc1cc(CN2CC[C@]3(C[C@@H](OCC(=O)N(C)C)CO3)C2)no1`, the cytotoxicity at 70.5 h rises from -13.5% to -6.96%.

First: Cc1n[nH]c2c1C(c1ccsc1)SCC(=O)N2 (stereo not given)
Second: CN(Cc1ccsc1)C(=O)c1nc(N2CCCC2)ncc1Cl
The cytotoxicity at 70.5 h of the first is higher: 8.67% for the first, -6.35% for the second.

Going from `CCc1cc(CN(C)C(=O)CN2CC(Cc3ccccc3)CC2=O)on1` (stereo not given) to `CC(C)Nc1nc(O)cc(C2CC(=O)N(Cc3ccccc3)C2)n1` (stereo not given), the cytotoxicity at 70.5 h falls from 2.31% to -7.01%.

Going from `CCCC(=O)N1CCN(CCN(C)C)c2nc(C)ccc2C1` to `Cc1nn(C)c(C)c1C1CCCN1Cc1cccc(C(=O)N(C)C)c1` (stereo not given), the cytotoxicity at 70.5 h rises from -2.97% to 37.6%.

Going from `CCN(C(=O)c1ccc(-c2ccccc2)nc1C)C1CC(=O)NC1=O` (stereo not given) to `Cc1n[nH]c(C)c1CC(=O)N1CC[C@@](C)(O)[C@H](Oc2ccccc2)C1`, the cytotoxicity at 70.5 h falls from -5.68% to -6.16%.

Compared with `Clc1ccc(-c2nnc([C@H]3CCN(C4CCCCC4)C3)o2)cc1`, `Cc1ccc(C#N)c(N2CCC(c3nccn3Cc3cscn3)CC2)n1` is lower in cytotoxicity at 70.5 h: -3.54% for the first, -8.13% for the second.

First: Cc1nn(C)cc1S(=O)(=O)NCC(C)Cn1cc(Cl)cn1 (stereo not given)
Second: Cn1cc(C(=O)NC(Cn2cccn2)C(C)(C)C)cn1 (stereo not given)
The cytotoxicity at 70.5 h of the first is higher: 3.54% for the first, 2.11% for the second.

First: O=C(c1cncc(N2CCC3(CC2)NCCNC3=O)n1)N1CCCCC1
Second: CC(=O)N1CCC2(CC1)NC(=O)[C@H]1CN(Cc3cccnc3)C[C@H]12
The cytotoxicity at 70.5 h of the first is lower: -4.89% for the first, 18.4% for the second.

First: COc1ccc(NC(=O)C(C)(C)C)cc1OCc1cccnc1
Second: O=C(NCCCNc1cccnc1)c1ccc2nccn2c1
The cytotoxicity at 70.5 h of the first is higher: 3.3% for the first, -12.7% for the second.

Compared with `CN1C[C@@H](N)C[C@H]1C(=O)N1CCC(Cc2ccc(F)cc2)CC1`, `CCSCc1ccc(C(=O)N2CCCN(CC)CC2)cc1` is lower in cytotoxicity at 70.5 h: 0.737% for the first, -10.3% for the second.

Going from `N[C@@H]1CC[C@@H]1NC(=O)c1ccccc1OC(F)(F)C(F)F` to `Cc1ccoc1C(=O)NC1CCN(Cc2ccccc2F)CC1`, the cytotoxicity at 70.5 h rises from 3.75% to 27.3%.

Going from `CCS(=O)(=O)NCCN1CCN(C(C#N)c2ccccc2)CC1` (stereo not given) to `CCC(O)CN1CCN(C(=O)c2cc3ccccc3n2CC)CC1` (stereo not given), the cytotoxicity at 70.5 h rises from -9.85% to 12.7%.

First: CSCc1cccc(S(=O)(=O)N2CCCCC2)c1
Second: CS(=O)(=O)N1CCC(Oc2ccc(C#N)cc2)CC1
The cytotoxicity at 70.5 h of the first is lower: -6.14% for the first, 7.19% for the second.

Compared with `Cn1cccc1C(=O)N1CCC2(CC1)c1nc[nH]c1CCN2S(C)(=O)=O`, `CN(C)CC(=O)N1CCC2(CCc3cc(-c4cccnc4)ccc32)CC1` is higher in cytotoxicity at 70.5 h: -3.6% for the first, -0.278% for the second.

Going from `Cc1nnc([C@@H]2C[C@H]3CN(C(=O)C4CC4)C[C@H]3O2)[nH]1` to `CC(=O)N1C[C@H](NS(=O)(=O)N2CCOCC2)[C@@H](c2ccc(C)o2)C1`, the cytotoxicity at 70.5 h falls from -5.22% to -7.85%.

Compared with `Cc1cnc2n(c1=O)CC(C(=O)Nc1ccccc1Cl)CS2` (stereo not given), `Cc1noc(C)c1CS(=O)(=O)CC(=O)N1c2ccccc2CC1C` (stereo not given) is lower in cytotoxicity at 70.5 h: -5% for the first, -12% for the second.

Going from `CC(C)c1ccc(O)c(C(=O)NCc2nncn2C)c1` to `CCC(CC)c1nnc(NC(=O)NC(C)Cn2cccn2)s1` (stereo not given), the cytotoxicity at 70.5 h rises from -6.12% to 12.3%.

Going from `COCC(=O)N1CC[C@@H]2O[C@@H](COCC3CCOCC3)CC[C@@H]21` to `O=C(C1CCC1)N1C(CN2CCOCC2)[C@]2(O)CC[C@H]1CC2` (stereo not given in full), the cytotoxicity at 70.5 h rises from 12.6% to 13.5%.

Compared with `O=C(O)c1cc(-c2cccnc2)cc(S(=O)(=O)NCc2ccccn2)c1`, `CC1(C)CN(CC(O)C(C)(C)C)C(=O)CN(C(=O)c2ccccc2)C1` (stereo not given) is higher in cytotoxicity at 70.5 h: -5.41% for the first, -4.32% for the second.

Compared with `CO[C@@H]1CCC[C@@H](N(C)C(=O)c2cc(F)ccc2F)[C@H]1O`, `COc1ccccc1CN1CC[C@]2(C[C@@H](OC)CO2)C1` is lower in cytotoxicity at 70.5 h: -3.32% for the first, -4.33% for the second.

Going from `CC(=O)N1CCC(Cc2cnc(-c3c(C)nn(C)c3C)cn2)C1` (stereo not given) to `Cc1csc(C2CCCN(C(=O)c3c(C)nn4cccnc34)C2)n1` (stereo not given), the cytotoxicity at 70.5 h rises from -25.8% to -4.25%.

Going from `CSCC(=O)N[C@H]1CC[C@H](Nc2nccc(-c3ccncc3)n2)C1` to `O=C(CCc1cccs1)N1CCCC(n2ccnc2)C1` (stereo not given), the cytotoxicity at 70.5 h falls from -0.057% to -5.36%.

Going from `CCOC(=O)[C@H]1[C@@H](O)C(=O)N(C)C12CCN(C(=O)OCC)CC2` to `CC(C)[C@@H]1CN(C(=O)CN(C)Cc2ccccc2)C[C@H]1C(=O)O`, the cytotoxicity at 70.5 h falls from 0.864% to -6.53%.

Compared with `COc1cccc(CN(C)Cc2ccccc2C#N)c1OC`, `CC(C)c1nc2c(n1C)CCN(Cc1nc(-c3ccco3)no1)C2` is lower in cytotoxicity at 70.5 h: -1.91% for the first, -7.27% for the second.

Compared with `COC(=O)c1ccc(C(=O)NCC2(O)CCOCC2)cc1`, `OC(COCc1ccco1)CN1CCC(Cn2cccn2)CC1` (stereo not given) is lower in cytotoxicity at 70.5 h: 33.7% for the first, -14.1% for the second.

Going from `C1CN(c2nc(C3CC3)ns2)CCO1` to `CC(C)(C)c1n[nH]c(C2CN(CCc3cccs3)CCO2)n1` (stereo not given), the cytotoxicity at 70.5 h rises from -5.18% to 3.37%.
